system: GST-p53 DNA binding domain (aa 92-aa 312); assay: Scintillation Proximity Assay (displacement of 3H-labeled p53 binder); settings: percentage of 3H-labeled ligand remaining bound, number in brackets = average of n
Description: [drawing 38] (^3H at C bearing the chlorophenyl groups and the piperazinyl group), a radiolabeled small molecule which binds to p53, and the GST-p53 DNA binding domain (aa 92-aa 312), a quantitative screening assay was used to determine if various molecules comprise p53 binding activity. The assay is based on Scintillation Proximity Assay (SPA) technology. The complex of GST-p53,
[drawing 39] and Glutathione-SPA beads (Amersham Biosciences) were incubated with mixing for 1 hour at room temperature in the presence of the compounds to be screened. The signal was read on a Microbeta.
The numerical values expressed refer to the percentage of labeled
[drawing 40] remaining bound to the mutant p53 protein after exposure to the indicated compound.

In the case of `CN(C)CCCNc1nc(CN(C)Cc2cccn2S(=O)(=O)c2ccccc2)nc2ccccc12` [Formula 93], the “SPA ASSAY % Residual T @ 2 ug/mL of drug (Average of)” value (shortened to “SPA ASSAY % Residual T @ 2 ug/mL”) is reported as 45.1 (3) %.
In the case of `CN(C)CCCNc1nc(CN(C)Cc2cccc(C(F)(F)F)c2)nc2ccccc12` [Formula 85], the “SPA ASSAY % Residual T @ 2 ug/mL” value is reported as 48.4 (3) %.
In the case of `CN(C)CCCNc1nc(CN(C)Cc2ccccc2OCC(=O)O)nc2ccccc12` [Formula 89], the “SPA ASSAY % Residual T @ 2 ug/mL” value is reported as 60.1 (3) %.
In the case of `CN(C)CCCNc1nc(CN(C)Cc2cc3ccccc3o2)nc2ccccc12` [Formula 78], the “SPA ASSAY % Residual T @ 2 ug/mL” value is reported as 45.9 (3) %.
In the case of `CC(C)CCN(C)Cc1nc(NCCCN(C)C)c2ccccc2n1` [Formula 61], the “SPA ASSAY % Residual T @ 2 ug/mL” value is reported as 31.6 (3) %.
For `CCC(C)CN(C)Cc1nc(NCCCN(C)C)c2ccccc2n1` (centres unmarked) [Formula 62], the “SPA ASSAY % Residual T @ 2 ug/mL” value was 50.0 (3) %.
With `CCC(C)(C)C1CCC(N(C)Cc2nc(NCCCN(C)C)c3ccccc3n2)CC1` (centres unmarked) [Formula 107] the “SPA ASSAY % Residual T @ 2 ug/mL” value was 6.3 (2) %.
With `CN(C)CCCNc1nc(CN(C)C2CCC(C(C)(C)C)CC2)nc2ccccc12` (centres unmarked) [Formula 103] the “SPA ASSAY % Residual T @ 2 ug/mL” value was 7.8 (2) %.
`CN(C)CCCNc1nc(CN(C)Cc2ccc3ccccc3c2)nc2ccccc12` [Formula 83] was tested, and the “SPA ASSAY % Residual T @ 2 ug/mL” value was 45.9 (3) %.
With `CN(C)CCCNc1nc(CN(C)C2CCC3CCCCC3C2)nc2ccccc12` (centres unmarked) [Formula 102] the “SPA ASSAY % Residual T @ 2 ug/mL” value was 28.7(3) %.
In the case of `CN(C)CCCNc1nc(CN(C)Cc2nccs2)nc2ccccc12` [Formula 66], the “SPA ASSAY % Residual T @ 2 ug/mL” value is reported as 37.0 (3) %.
With `CN(C)CCCNc1nc(CN(C)C2CCC(c3ccccc3)CC2)nc2ccccc12` (centres unmarked) [Formula 108] the “SPA ASSAY % Residual T @ 2 ug/mL” value was 21.0 (2) %.
With `CC(C)C1CCC(N(C)Cc2nc(NCCCN(C)C)c3ccccc3n2)CC1` (centres unmarked) [Formula 100] the “SPA ASSAY % Residual T @ 2 ug/mL” value was 13.5 (3) %.

Point of comparison: `CN(C)CCCNc1nc(CN(C)CC2CCCCC2)nc2ccccc12` [Formula 111], “SPA ASSAY % Residual T @ 2 ug/mL” value 57.0%. Against it:
- Cc1cccc(C)c1CN(C)Cc1nc(NCCCN(C)C)c2ccccc2n1 [Formula 72] — higher, 69.7%
- CN(C)CCCNc1nc(CN(C)Cc2ccccc2C#N)nc2ccccc12 [Formula 68] — lower, 52.7%
- O=c1[nH]c2ccccc2n1C1CCN(c2nc(CN3CCN(C(c4ccc(Cl)cc4)c4ccc(Cl)cc4)CC3)nc3ccccc23)CC1 [Formula 18] — lower, 47.9%
- COC(=O)[C@@H](Nc1nc(CNC(=O)Nc2cc(Cl)cc(Cl)c2)nc2ccccc12)C(C)C [Formula 56] — lower, 52.3%
- Clc1ccc(C(c2ccc(Cl)cc2)N2CCN(Cc3nc(N4CCN(c5ccccc5)CC4)c4ccccc4n3)CC2)cc1 [Formula 46] — higher, 87.5%
- CN(C)CCCNc1nc(CN(C)Cc2cccc(F)c2)nc2ccccc12 [Formula 67] — higher, 64.1%
- CCN(CC)C(=O)C1CCCN(c2nc(CN3CCN(C(c4ccc(Cl)cc4)c4ccc(Cl)cc4)CC3)nc3ccccc23)C1 (centres unmarked) [Formula 49] — higher, 65.7%
- COc1ccc(/C=C/c2nc(NCCCN(C)C)c3ccccc3n2)cc1 [Formula 114] — higher, 61.3%
- CN(C)CCCNc1nc(CN(C)Cc2ccccc2Sc2ccc(Cl)cc2)nc2ccccc12 [Formula 94] — lower, 53.7%
- CC(CCN(C)Cc1nc(NCCCN(C)C)c2ccccc2n1)c1ccccc1 (centres unmarked) [Formula 79] — higher, 67.6%
- CN(C)CCCNc1nc(CN(C)C2CCCC(C(F)(F)F)C2)nc2ccccc12 (centres unmarked) [Formula 105] — higher, 57.7%
- CN(C)CCCNc1nc(CN(C)Cc2ccc(-c3ccccc3)cc2)nc2ccccc12 [Formula 90] — higher, 68.1%
- COC(=O)[C@@H](Nc1nc(CNC(=O)Nc2ccccc2C(F)(F)F)nc2ccccc12)C(C)C [Formula 54] — lower, 48.1%
- CN(C)CCCNc1nc(CN(C)Cc2cccs2)nc2ccccc12 [Formula 65] — higher, 65.5%
- Clc1ccc(C(c2ccc(Cl)cc2)N2CCN(Cc3nc(N4CCOCC4)c4ccccc4n3)CC2)cc1 [Formula 41] — higher, 63.1%
- CC1CCC(N(C)Cc2nc(NCCCN(C)C)c3ccccc3n2)CC1 (centres unmarked) [Formula 99] — lower, 56.5%
- CN(C)CC[C@H](Nc1nc(CN2CCN(C(c3ccc(Cl)cc3)c3ccc(Cl)cc3)CC2)nc2ccccc12)C(N)=O [Formula 115] — lower, 44.8%
- COC(=O)[C@@H](Nc1nc(CN2CCN(C(=O)Nc3ccc(C(C)C)cc3)CC2)nc2ccccc12)C(C)C [Formula 11] — lower, 39.5%
- OC1CCN(c2nc(CN3CCN(C(c4ccc(Cl)cc4)c4ccc(Cl)cc4)CC3)nc3ccccc23)C1 (centres unmarked) [Formula 42] — higher, 70.0%
- COc1ccc(CN(C)Cc2nc(NCCCN(C)C)c3ccccc3n2)cc1 [Formula 73] — lower, 44.4%
- CN(C)CCCNc1nc(CN2CCN(C(c3ccccc3)c3ccc(OC(F)(F)F)cc3)CC2)nc2ccccc12 (centres unmarked) [Formula 9] — lower, 27.9%
- CN(C)CCCNc1nc(CN(C)Cc2cccc3c2OCO3)nc2ccccc12 [Formula 81] — lower, 46.8%
- Cc1cc(C)c(NC(=O)N2CCN(Cc3nc(NCCCN(C)C)c4ccccc4n3)CC2)c(C)c1 [Formula 39] — lower, 53.0%
- CN(C)CCCC[C@H](Nc1nc(CN2CCN(C(c3ccc(Cl)cc3)c3ccc(Cl)cc3)CC2)nc2ccccc12)C(N)=O [Formula 119] — higher, 58.5%
- COC(=O)[C@@H](Nc1nc(CN2CCN(C(=O)NC(c3ccccc3)c3ccccc3)CC2)nc2ccccc12)C(C)C [Formula 12] — lower, 45.6%
- CN(C)CCCNc1nc(CN(C)Cc2ccc(Cl)cc2)nc2ccccc12 [Formula 74] — lower, 55.1%
- CN(C)CCCNc1nc(CN(C)C/C=C/c2ccccc2)nc2ccccc12 [Formula 71] — higher, 68.4%
- CCC(C)(C)C1CCC(N2CCN(Cc3nc(NCCCN(C)C)c4ccccc4n3)CC2)CC1 (centres unmarked) [Formula 15] — lower, 38.1%
- CN(C)CCCNc1nc(CN(C)Cc2c(F)cccc2F)nc2ccccc12 [Formula 75] — higher, 58.9%
- CC(C)[C@H](Nc1nc(CNC(=O)N[C@H](C)c2ccccc2)nc2ccccc12)C(N)=O [Formula 59] — lower, 56.8%
- CN(C)CCCNc1nc(CN(C)Cc2ccc(C#Cc3ccccc3)cc2)nc2ccccc12 [Formula 92] — higher, 61.1%
- CN(C)CCCNc1nc(CN(C)Cc2ccccc2C(=O)O)nc2ccccc12 [Formula 80] — higher, 65.6%
- Clc1ccc(C(c2ccc(Cl)cc2)N2CCN(Cc3nc(N4CCN(c5ncccn5)CC4)c4ccccc4n3)CC2)cc1 [Formula 47] — higher, 85.0%
- O=C(C1CCCO1)N1CCN(c2nc(CN3CCN(C(c4ccc(Cl)cc4)c4ccc(Cl)cc4)CC3)nc3ccccc23)CC1 (centres unmarked) [Formula 48] — higher, 66.0%
- CN(Cc1ccccc1)c1nc(CN2CCN(C(c3ccc(Cl)cc3)c3ccc(Cl)cc3)CC2)nc2ccccc12 [Formula 43] — higher, 80.7%
- COC(=O)[C@@H](Nc1nc(CNC(=O)Nc2ccccc2-c2ccccc2)nc2ccccc12)C(C)C [Formula 57] — lower, 52.7%
- CN(C)[C@@H]1CCN(c2nc(CN3CCN(C(c4ccc(Cl)cc4)c4ccc(Cl)cc4)CC3)nc3ccccc23)C1 [Formula 50] — lower, 53.0%
- CCOC(=O)C1CC1CN(C)Cc1nc(NCCCN(C)C)c2ccccc2n1 (centres unmarked) [Formula 76] — higher, 57.8%
- CN(C)CCCNc1nc(CN(C)Cc2ccc(C#N)cc2)nc2ccccc12 [Formula 70] — lower, 54.1%
- CN(C)CCCNc1nc(CN(C)C2CCC2)nc2ccccc12 [Formula 95] — higher, 66.5%
- CN(C)CCCNc1nc(CN(C)Cc2ccco2)nc2ccccc12 [Formula 63] — lower, 52.7%
- CN(CCc1ccccn1)c1nc(CN2CCN(C(c3ccc(Cl)cc3)c3ccc(Cl)cc3)CC2)nc2ccccc12 [Formula 45] — higher, 61.6%
- CN(C)CCCNc1nc(CN(Cc2ccccc2)Cc2ccccc2)nc2ccccc12 [Formula 113] — higher, 61.7%
- CN(C)CCC[C@H](Nc1nc(CN2CCN(C(c3ccc(Cl)cc3)c3ccc(Cl)cc3)CC2)nc2ccccc12)C(N)=O [Formula 118] — higher, 58.6%
- CN(C)CCCNc1nc(CN2CCN(C(=O)Nc3ccc(Cl)c(Cl)c3)CC2)nc2ccccc12 [Formula 17] — lower, 29.9%

Source: US7790474B1, “p53 modulators” (Schering Corporation, priority 2005, dated 2010)
